In ChEMBL document CHEMBL4507311, “Data for DCP probe A-1155463” (2021):

Columns and labels:
[1] = molecular target: MAO-B (amine oxidase [flavin-containing] B) (Homo sapiens, UniProt P27338); experiment: MAO-B (h) recombinant enzyme Eurofins-Cerep enzyme and uptake assay; set-up: incubation time 60 min, incubation temperature 37°C, substrate/stimulus/tracer D-Luciferin derivative (4 µM); details: probe D-Luciferin derivative (4 µM), compound concentration 10 uM, read-out: % Inhibition of Control Values (Mean n=2)
[2] = molecular target: Adenosine receptor A2a (Homo sapiens) (UniProt P29274); experiment: A2A (h) Eurofins-Cerep binding assay; set-up: ligand concentration 6 nM; details: filed as agonist, Compound concentration 10.0 uM
[3] = molecular target: T1, Alpha-2B adrenergic receptor (Homo sapiens) (UniProt P18089); experiment: Alpha2B (h) Eurofins-Cerep binding assay; set-up: ligand concentration 2.5 nM; details: filed as antagonist, Compound concentration 10.0 uM
T1 sequence (whole entry): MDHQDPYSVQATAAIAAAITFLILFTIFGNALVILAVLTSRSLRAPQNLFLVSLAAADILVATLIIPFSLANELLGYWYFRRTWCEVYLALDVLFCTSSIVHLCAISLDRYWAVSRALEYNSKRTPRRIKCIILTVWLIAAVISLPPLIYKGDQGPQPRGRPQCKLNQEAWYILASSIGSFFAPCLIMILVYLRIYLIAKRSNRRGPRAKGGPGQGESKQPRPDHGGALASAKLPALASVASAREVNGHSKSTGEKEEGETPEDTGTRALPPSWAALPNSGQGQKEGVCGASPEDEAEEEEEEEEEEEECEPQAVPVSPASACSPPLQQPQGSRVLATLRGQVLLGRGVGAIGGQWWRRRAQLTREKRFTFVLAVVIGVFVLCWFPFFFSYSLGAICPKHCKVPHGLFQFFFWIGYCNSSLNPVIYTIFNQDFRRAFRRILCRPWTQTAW

[4] = molecular target: Beta-2 adrenergic receptor (Homo sapiens) (UniProt P07550); experiment: Beta2 (h) Eurofins-Cerep binding assay; set-up: ligand concentration 0.3 nM; details: filed as antagonist, Compound concentration 10.0 uM
[5] = molecular target: Cannabinoid receptor 2 (Homo sapiens) (UniProt P34972); experiment: CB2 (h) Eurofins-Cerep binding assay; set-up: ligand concentration 0.8 nM; details: filed as agonist, Compound concentration 10.0 uM
[6] = molecular target: Endothelin receptor type B (Homo sapiens) (UniProt P24530); experiment: ETB (h) Eurofins-Cerep binding assay; set-up: ligand concentration 0.03 nM; details: filed as agonist, Compound concentration 10.0 uM
[7] = molecular target: Glutamate NMDA receptor (Rattus norvegicus) (UniProt P35439+Q00959+Q00960+Q00961+Q62645+Q8VHN2+Q9R1M7); experiment: NMDA Eurofins-Cerep binding assay; format: protein-complex assay; set-up: ligand concentration 5 nM; details: filed as antagonist, Compound concentration 10.0 uM
[8] = molecular target: Tumor necrosis factor (Homo sapiens) (UniProt P01375); experiment: TNF-alpha (h) Eurofins-Cerep binding assay; set-up: ligand concentration 0.1 nM; details: filed as agonist, Compound concentration 10.0 uM
[9] = molecular target: Histamine H2 receptor (Homo sapiens) (UniProt P25021); experiment: H2 (h) Eurofins-Cerep binding assay; set-up: ligand concentration 0.075 nM; details: filed as antagonist, Compound concentration 10.0 uM
[10] = molecular target: T2, Muscarinic acetylcholine receptor M2 (Homo sapiens) (UniProt P08172); experiment: M2 (h) Eurofins-Cerep binding assay; set-up: ligand concentration 2 nM; details: filed as antagonist, Compound concentration 10.0 uM
T2 sequence (whole entry): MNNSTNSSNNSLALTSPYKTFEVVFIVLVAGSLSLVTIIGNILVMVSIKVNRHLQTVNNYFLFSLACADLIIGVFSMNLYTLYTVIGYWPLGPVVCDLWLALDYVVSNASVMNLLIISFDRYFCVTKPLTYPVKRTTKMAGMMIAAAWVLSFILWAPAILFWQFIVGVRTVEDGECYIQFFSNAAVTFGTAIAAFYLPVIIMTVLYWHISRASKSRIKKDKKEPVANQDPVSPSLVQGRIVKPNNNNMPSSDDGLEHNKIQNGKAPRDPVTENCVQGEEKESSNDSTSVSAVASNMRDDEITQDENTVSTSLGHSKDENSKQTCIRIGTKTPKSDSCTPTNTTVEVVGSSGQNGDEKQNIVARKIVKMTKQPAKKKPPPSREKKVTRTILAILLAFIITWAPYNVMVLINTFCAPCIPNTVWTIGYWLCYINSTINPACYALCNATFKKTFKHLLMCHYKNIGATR

[11] = molecular target: Muscarinic acetylcholine receptor M3 (Homo sapiens) (UniProt P20309); experiment: M3 (h) Eurofins-Cerep binding assay; set-up: ligand concentration 0.2 nM; details: filed as antagonist, Compound concentration 10.0 uM
[12] = molecular target: T3, Muscarinic acetylcholine receptor M5 (Homo sapiens) (UniProt P08912); experiment: M5 (h) Eurofins-Cerep binding assay; set-up: ligand concentration 0.3 nM; details: filed as antagonist, Compound concentration 10.0 uM
T3 sequence (whole entry): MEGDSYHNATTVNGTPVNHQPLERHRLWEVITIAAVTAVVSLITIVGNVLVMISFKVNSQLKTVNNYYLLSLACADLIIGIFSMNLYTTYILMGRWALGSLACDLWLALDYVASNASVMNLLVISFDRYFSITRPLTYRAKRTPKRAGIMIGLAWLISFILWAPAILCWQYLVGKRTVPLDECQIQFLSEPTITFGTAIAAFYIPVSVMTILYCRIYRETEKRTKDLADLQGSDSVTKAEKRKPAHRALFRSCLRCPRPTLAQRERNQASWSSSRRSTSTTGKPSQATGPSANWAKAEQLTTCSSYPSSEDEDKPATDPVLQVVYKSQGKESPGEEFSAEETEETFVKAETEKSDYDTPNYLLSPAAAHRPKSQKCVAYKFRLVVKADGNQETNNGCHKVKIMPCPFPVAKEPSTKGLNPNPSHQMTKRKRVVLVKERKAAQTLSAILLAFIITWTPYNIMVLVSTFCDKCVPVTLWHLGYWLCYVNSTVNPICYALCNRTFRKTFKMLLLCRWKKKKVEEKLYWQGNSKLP

[13] = molecular target: Substance-P receptor (Homo sapiens) (UniProt P25103); experiment: NK1 (h) Eurofins-Cerep binding assay; set-up: ligand concentration 0.05 nM; details: filed as agonist, Compound concentration 10.0 uM
[14] = molecular target: 5-hydroxytryptamine receptor 2A (Homo sapiens) (UniProt P28223); experiment: 5-HT2A (h) Eurofins-Cerep binding assay; set-up: ligand concentration 0.5 nM; details: filed as antagonist, Compound concentration 10.0 uM
[15] = molecular target: 5-hydroxytryptamine receptor 7 (Homo sapiens) (UniProt P34969); experiment: 5-HT7 (h) Eurofins-Cerep binding assay; set-up: ligand concentration 4 nM; details: filed as agonist, Compound concentration 10.0 uM
[16] = molecular target: L-type Ca2+ channel (diltiazem site, benzothiazepines) (Rattus norvegicus, UniProt P22002+P27732+Q02485); experiment: Ca2+ channel (L, diltiazem site) (benzothiazepines) Eurofins-Cerep binding assay; format: protein assay; set-up: incubation time 120 min, incubation temperature RT, ligand concentration 15 nM; details: rat cerebral cortex, probe [3H]diltiazem (15 nM), compound concentration 10 uM, read-out: % Inhibition of Control Specific Binding (Mean n=2)
[17] = molecular target: Sulfonylurea receptors; K-ATP channels (Rattus norvegicus) (UniProt Q63563+P70673+Q63664+Q09429); experiment: KATP channel Eurofins-Cerep binding assay; format: protein-complex assay; set-up: ligand concentration 0.1 nM; details: filed as antagonist, Compound concentration 10.0 uM
Rattus norvegicus = species: Rattus norvegicus; experiment: SKCa channel Eurofins-Cerep binding assay; set-up: ligand concentration 0.007 nM; details: filed as antagonist, Compound concentration 10.0 uM
[18] = molecular target: voltage-gated Na+ channel (site 2) (Rattus norvegicus, UniProt F1LQQ7+O08562+O88420+O88457+P04774+P04775+P08104+P15389+P15390+Q62968); experiment: Na+ channel (site 2) Eurofins-Cerep binding assay; format: protein assay; set-up: incubation time 60 min, incubation temperature 37°C, ligand concentration 10 nM; details: rat cerebral cortex, probe [3H]batrachotoxin (10 nM), compound concentration 10 uM, read-out: % Inhibition of Control Specific Binding (Mean n=2)
[19] = molecular target: GABA-A receptor; anion channel (Rattus norvegicus) (UniProt O09028+P15431+P18506+P18508+P19969+P20236+P23574+P23576+P28471+P28473+P30191+P62813+P63079+P63138+Q91ZM7+Q9ES14); experiment: Cl- channel (GABA-gated) Eurofins-Cerep binding assay; format: protein-complex assay; set-up: ligand concentration 3 nM; details: filed as antagonist, Compound concentration 10.0 uM

Chain of Tumor necrosis factor (Homo sapiens) (P01375 whole entry): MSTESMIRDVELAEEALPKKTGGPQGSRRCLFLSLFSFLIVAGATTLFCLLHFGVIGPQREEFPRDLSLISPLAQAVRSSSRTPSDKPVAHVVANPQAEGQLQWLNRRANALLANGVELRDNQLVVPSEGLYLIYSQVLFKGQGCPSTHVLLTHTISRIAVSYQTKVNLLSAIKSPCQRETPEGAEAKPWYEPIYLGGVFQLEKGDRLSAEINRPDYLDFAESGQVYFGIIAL
Chain of Beta-2 adrenergic receptor (Homo sapiens) (P07550 whole entry, looked up): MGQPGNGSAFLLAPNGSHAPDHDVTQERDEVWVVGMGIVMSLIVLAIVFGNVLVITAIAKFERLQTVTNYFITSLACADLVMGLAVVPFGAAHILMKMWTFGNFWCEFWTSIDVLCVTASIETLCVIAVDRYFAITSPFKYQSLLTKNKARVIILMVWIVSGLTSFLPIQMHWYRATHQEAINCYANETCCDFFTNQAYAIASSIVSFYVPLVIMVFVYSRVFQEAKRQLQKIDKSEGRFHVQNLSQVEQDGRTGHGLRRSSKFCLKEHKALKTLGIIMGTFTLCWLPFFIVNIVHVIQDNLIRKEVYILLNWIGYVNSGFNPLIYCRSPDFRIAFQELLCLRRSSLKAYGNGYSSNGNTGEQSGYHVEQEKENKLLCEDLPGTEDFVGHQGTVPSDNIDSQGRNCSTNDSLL
Chain of Muscarinic acetylcholine receptor M3 (Homo sapiens) (P20309 whole entry, looked up): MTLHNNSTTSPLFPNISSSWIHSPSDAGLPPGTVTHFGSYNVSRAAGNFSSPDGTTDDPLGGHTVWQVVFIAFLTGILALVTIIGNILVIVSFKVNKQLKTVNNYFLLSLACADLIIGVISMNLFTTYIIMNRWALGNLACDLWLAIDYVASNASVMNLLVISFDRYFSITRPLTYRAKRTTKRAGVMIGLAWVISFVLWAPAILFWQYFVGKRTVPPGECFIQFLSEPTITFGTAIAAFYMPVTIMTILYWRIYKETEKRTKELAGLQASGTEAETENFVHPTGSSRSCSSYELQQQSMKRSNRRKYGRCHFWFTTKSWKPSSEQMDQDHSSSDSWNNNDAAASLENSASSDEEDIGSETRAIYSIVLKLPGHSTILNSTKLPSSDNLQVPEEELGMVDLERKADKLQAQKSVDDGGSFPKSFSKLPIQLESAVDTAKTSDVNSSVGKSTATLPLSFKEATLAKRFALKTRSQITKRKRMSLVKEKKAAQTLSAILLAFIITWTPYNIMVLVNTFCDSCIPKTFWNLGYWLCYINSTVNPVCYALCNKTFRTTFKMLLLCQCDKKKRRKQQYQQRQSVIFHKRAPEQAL
Chain of 5-hydroxytryptamine receptor 2A (Homo sapiens) (P28223 whole entry): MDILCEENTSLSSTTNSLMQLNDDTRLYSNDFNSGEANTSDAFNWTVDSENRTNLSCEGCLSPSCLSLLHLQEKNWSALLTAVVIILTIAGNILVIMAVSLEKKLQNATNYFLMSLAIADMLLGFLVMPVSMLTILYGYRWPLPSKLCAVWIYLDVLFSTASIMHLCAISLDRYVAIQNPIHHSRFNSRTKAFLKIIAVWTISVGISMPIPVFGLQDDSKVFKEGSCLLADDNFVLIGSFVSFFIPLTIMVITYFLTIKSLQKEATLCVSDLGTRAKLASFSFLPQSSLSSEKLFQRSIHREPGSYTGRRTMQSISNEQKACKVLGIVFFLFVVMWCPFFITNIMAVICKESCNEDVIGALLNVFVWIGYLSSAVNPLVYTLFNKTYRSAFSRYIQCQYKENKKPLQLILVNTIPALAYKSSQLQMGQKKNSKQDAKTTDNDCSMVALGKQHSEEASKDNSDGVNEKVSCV
Chain of Substance-P receptor (Homo sapiens) (P25103 whole entry): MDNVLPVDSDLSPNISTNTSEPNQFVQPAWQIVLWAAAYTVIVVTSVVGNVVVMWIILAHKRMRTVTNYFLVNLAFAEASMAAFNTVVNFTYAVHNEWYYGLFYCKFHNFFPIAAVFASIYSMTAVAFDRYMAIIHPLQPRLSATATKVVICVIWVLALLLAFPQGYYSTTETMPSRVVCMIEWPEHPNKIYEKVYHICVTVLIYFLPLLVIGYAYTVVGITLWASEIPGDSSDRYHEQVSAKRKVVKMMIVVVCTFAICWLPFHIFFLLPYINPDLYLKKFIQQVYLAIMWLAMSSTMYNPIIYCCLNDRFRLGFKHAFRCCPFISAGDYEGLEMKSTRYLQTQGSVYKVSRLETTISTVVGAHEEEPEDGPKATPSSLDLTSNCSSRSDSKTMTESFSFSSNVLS
Chain of Endothelin receptor type B (Homo sapiens) (P24530 whole entry): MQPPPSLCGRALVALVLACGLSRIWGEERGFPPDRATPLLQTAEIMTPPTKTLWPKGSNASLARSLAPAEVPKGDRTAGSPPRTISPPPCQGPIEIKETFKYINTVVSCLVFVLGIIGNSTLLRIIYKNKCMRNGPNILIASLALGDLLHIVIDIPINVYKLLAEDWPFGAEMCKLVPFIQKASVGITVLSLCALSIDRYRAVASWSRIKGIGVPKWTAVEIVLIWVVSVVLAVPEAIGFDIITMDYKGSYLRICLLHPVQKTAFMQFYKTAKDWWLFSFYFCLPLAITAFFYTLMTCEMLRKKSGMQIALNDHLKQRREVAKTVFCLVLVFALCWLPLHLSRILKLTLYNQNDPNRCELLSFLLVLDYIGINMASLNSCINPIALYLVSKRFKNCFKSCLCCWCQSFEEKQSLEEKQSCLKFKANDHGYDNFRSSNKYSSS
Chain of MAO-B (amine oxidase [flavin-containing] B) (P27338 whole entry): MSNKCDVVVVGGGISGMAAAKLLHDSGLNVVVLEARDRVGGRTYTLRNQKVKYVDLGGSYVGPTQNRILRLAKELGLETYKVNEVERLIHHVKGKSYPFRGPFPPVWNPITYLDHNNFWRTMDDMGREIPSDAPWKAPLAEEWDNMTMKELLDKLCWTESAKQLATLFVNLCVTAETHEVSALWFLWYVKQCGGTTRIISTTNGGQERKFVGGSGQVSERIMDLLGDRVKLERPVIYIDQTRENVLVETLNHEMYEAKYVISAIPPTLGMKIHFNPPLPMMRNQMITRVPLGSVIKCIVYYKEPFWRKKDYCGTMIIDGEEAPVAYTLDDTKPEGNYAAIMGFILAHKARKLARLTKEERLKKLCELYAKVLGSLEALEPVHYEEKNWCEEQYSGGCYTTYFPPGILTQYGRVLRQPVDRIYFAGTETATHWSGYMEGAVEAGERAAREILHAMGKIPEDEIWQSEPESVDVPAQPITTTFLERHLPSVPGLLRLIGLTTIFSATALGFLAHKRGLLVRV
Chain of Histamine H2 receptor (Homo sapiens) (P25021 whole entry): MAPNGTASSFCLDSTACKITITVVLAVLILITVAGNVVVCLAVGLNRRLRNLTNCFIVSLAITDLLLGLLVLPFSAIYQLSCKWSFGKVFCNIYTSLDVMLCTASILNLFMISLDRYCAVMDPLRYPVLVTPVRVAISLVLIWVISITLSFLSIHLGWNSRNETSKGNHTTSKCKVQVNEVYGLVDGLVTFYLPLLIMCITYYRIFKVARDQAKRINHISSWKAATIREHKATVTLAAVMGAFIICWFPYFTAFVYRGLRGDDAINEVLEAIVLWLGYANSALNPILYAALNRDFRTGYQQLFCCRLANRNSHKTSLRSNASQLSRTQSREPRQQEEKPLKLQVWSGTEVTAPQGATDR
Chain of 5-hydroxytryptamine receptor 7 (Homo sapiens) (P34969 whole entry): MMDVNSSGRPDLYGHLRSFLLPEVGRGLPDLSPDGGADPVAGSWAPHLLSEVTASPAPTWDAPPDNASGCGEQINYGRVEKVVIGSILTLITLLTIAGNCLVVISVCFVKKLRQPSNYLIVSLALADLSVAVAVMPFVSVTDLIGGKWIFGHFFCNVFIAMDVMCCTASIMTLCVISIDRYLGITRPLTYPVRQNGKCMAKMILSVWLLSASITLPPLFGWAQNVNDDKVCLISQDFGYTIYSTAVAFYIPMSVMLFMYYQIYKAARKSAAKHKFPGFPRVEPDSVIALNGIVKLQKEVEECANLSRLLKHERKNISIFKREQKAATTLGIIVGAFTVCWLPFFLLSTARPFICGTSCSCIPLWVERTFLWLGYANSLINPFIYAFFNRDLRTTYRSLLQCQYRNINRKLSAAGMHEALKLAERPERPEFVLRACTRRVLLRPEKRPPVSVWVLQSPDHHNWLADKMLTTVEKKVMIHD
Chain of Adenosine receptor A2a (Homo sapiens) (P29274 whole entry): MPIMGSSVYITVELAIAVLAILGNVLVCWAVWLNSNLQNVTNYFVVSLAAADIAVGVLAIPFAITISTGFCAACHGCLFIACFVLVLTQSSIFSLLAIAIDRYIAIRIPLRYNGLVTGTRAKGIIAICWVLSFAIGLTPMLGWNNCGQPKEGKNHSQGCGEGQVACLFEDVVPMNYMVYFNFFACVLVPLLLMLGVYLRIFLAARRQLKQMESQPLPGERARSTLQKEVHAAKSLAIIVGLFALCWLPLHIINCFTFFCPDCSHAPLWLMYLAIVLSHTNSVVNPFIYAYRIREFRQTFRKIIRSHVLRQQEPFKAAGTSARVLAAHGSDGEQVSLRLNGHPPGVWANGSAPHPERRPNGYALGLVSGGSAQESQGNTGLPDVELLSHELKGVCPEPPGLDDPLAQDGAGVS
Chain of Cannabinoid receptor 2 (Homo sapiens) (P34972 whole entry): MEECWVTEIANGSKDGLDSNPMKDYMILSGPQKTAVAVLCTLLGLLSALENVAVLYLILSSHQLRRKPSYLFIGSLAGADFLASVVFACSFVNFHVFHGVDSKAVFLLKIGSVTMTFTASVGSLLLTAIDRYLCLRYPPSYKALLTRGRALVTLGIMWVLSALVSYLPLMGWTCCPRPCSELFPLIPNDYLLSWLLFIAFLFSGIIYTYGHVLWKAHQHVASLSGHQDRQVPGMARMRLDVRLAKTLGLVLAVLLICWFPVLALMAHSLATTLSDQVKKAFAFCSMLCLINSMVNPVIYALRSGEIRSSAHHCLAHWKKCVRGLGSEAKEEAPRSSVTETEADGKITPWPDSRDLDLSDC

Structure (SMILES): O=C(Nc1nc2ccccc2s1)c1cccc2c1CN(c1nc(C(=O)O)c(CCOc3ccc(-n4ncc5cncnc54)cc3)s1)CC2 [A-1107969]
- inhibition at 60 min, 10 µM [1]: -2%
- % Inhibition of Control Specific Binding (Mean n=2) [2]: 28.3%
- % Inhibition of Control Specific Binding (Mean n=2) [3]: -17.8%
- % Inhibition of Control Specific Binding (Mean n=2) [4]: -6.9%
- % Inhibition of Control Specific Binding (Mean n=2) [5]: -9.9%
- % Inhibition of Control Specific Binding (Mean n=2) [6]: 0.8%
- % Inhibition of Control Specific Binding (Mean n=2) [7]: 7.8%
- % Inhibition of Control Specific Binding (Mean n=2) [8]: -1.7%
- % Inhibition of Control Specific Binding (Mean n=2) [9]: -11%
- % Inhibition of Control Specific Binding (Mean n=2) [10]: -7.3%
- % Inhibition of Control Specific Binding (Mean n=2) [11]: -4.4%
- % Inhibition of Control Specific Binding (Mean n=2) [12]: 8.8%
- % Inhibition of Control Specific Binding (Mean n=2) [13]: 8.7%
- % Inhibition of Control Specific Binding (Mean n=2) [14]: -0.6%
- % Inhibition of Control Specific Binding (Mean n=2) [15]: 11.4%
- inhibition at 120 min, 10 µM [16]: 16.2%
- % Inhibition of Control Specific Binding (Mean n=2) [17]: 15.8%
- % Inhibition of Control Specific Binding (Mean n=2) (Rattus norvegicus): -12.2%
- inhibition at 60 min, 10 µM [18]: 3.3%
- % Inhibition of Control Specific Binding (Mean n=2) [19]: 11.2%

Structure (SMILES): CN(C)CC#Cc1ccc(OCCCc2sc(N3CCc4cccc(C(=O)Nc5nc6ccccc6s5)c4C3)nc2C(=O)O)c(F)c1 [A-1155463]
- inhibition at 60 min, 10 µM [1]: -2.2%
- % Inhibition of Control Specific Binding (Mean n=2) [2]: 51.8%
- % Inhibition of Control Specific Binding (Mean n=2) [3]: -2.5%
- % Inhibition of Control Specific Binding (Mean n=2) [4]: -7%
- % Inhibition of Control Specific Binding (Mean n=2) [5]: 4.1%
- % Inhibition of Control Specific Binding (Mean n=2) [6]: 9.6%
- % Inhibition of Control Specific Binding (Mean n=2) [7]: 21.6%
- % Inhibition of Control Specific Binding (Mean n=2) [8]: -6.3%
- % Inhibition of Control Specific Binding (Mean n=2) [9]: -11.6%
- % Inhibition of Control Specific Binding (Mean n=2) [10]: 28.6%
- % Inhibition of Control Specific Binding (Mean n=2) [11]: 17.4%
- % Inhibition of Control Specific Binding (Mean n=2) [12]: 10.3%
- % Inhibition of Control Specific Binding (Mean n=2) [13]: 3.3%
- % Inhibition of Control Specific Binding (Mean n=2) [14]: 44.3%
- % Inhibition of Control Specific Binding (Mean n=2) [15]: 16.9%
- inhibition at 120 min, 10 µM [16]: 10.8%
- % Inhibition of Control Specific Binding (Mean n=2) [17]: 27.4%
- % Inhibition of Control Specific Binding (Mean n=2) (Rattus norvegicus): -3.7%
- inhibition at 60 min, 10 µM [18]: 32.3%
- % Inhibition of Control Specific Binding (Mean n=2) [19]: 9.9%
